How the values were obtained:
Parameters in all cases: scale not given: the % may be the effect or the level left
[1] = target: Casein kinase I isoform gamma-2 (Homo sapiens) (UniProt P78368); assay: Inhibition of human CK1g2 assessed as enzyme activity at 1 uM using KRRRAL[pS]VASLPGL as substrate preincubated for 20 mins followed by [gamma-33P]-ATP addition and measured after 120 mins by radiometric Hot-SpotSM Kinase assay relative to control
[2] = target: T1, Ephrin type-B receptor 3 (Homo sapiens) (UniProt P54753); assay: Inhibition of human EPHB3 assessed as enzyme activity at 1 uM using poly[Glu:Tyr] (4:1) as substrate preincubated for 20 mins followed by [gamma-33P]-ATP addition and measured after 120 mins by radiometric Hot-SpotSM Kinase assay relative to control
T1 sequence (whole entry): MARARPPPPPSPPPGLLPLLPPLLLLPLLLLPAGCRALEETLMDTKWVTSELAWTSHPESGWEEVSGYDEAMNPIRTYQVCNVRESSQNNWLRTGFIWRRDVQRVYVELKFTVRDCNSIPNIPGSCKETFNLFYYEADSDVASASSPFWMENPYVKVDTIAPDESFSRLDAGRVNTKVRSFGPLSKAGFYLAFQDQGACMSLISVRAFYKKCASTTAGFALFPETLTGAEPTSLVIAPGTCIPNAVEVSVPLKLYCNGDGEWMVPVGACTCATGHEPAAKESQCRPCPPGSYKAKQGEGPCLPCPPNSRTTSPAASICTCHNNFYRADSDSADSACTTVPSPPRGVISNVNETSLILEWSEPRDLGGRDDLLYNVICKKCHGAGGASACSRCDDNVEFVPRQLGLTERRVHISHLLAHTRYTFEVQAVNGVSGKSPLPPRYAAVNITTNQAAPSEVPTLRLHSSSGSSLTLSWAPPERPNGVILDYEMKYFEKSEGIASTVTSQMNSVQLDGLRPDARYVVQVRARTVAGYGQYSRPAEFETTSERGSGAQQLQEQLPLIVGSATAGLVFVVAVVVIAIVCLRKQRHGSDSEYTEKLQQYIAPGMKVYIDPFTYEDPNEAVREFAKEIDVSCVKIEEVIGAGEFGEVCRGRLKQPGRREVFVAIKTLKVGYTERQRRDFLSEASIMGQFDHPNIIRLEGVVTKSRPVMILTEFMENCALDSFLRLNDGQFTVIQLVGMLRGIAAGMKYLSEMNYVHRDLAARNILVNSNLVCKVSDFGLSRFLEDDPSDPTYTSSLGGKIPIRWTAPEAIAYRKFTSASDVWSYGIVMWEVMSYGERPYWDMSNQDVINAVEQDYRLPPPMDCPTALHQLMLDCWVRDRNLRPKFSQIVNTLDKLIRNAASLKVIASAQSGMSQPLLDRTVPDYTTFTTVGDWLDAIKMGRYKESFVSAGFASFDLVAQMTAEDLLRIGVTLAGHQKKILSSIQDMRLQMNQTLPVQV

[3] = target: Death-associated protein kinase 3 (Homo sapiens) (UniProt O43293); assay: Inhibition of human ZIPK assessed as enzyme activity at 1 uM using KKLNRTLSFAEPG as substrate preincubated for 20 mins followed by [gamma-33P]-ATP addition and measured after 120 mins by radiometric Hot-SpotSM Kinase assay relative to control
Chain of Death-associated protein kinase 3 (Homo sapiens) (O43293 whole entry, looked up): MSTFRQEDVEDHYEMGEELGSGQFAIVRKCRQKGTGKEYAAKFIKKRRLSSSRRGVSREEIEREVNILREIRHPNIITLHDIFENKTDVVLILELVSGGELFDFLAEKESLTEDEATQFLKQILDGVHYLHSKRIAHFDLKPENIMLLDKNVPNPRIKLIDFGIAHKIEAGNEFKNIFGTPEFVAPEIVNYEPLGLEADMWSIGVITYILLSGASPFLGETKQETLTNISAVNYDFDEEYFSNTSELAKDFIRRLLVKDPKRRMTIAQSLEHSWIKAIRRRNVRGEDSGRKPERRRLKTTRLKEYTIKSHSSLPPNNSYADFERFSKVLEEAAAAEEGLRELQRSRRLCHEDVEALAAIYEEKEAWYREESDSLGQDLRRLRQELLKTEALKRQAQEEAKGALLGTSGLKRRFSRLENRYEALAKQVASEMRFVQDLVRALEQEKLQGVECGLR

[4] = target: Cyclin-Y/Cyclin-dependent kinase 16 (Homo sapiens) (UniProt Q00536+Q8ND76); assay: Inhibition of human CDK16/cyclin Y assessed as enzyme activity at 1 uM using RB Protein as substrate preincubated for 20 mins followed by [gamma-33P]-ATP addition and measured after 120 mins by radiometric Hot-SpotSM Kinase assay relative to control; assay type: protein-complex assay
[5] = target: Serine/threonine-protein kinase MRCK gamma (Homo sapiens) (UniProt Q6DT37); assay: Inhibition of human DMPK2 assessed as enzyme activity at 1 uM using KKRPQRRYSNVF as substrate preincubated for 20 mins followed by [gamma-33P]-ATP addition and measured after 120 mins by radiometric Hot-SpotSM Kinase assay relative to control
Chain of Serine/threonine-protein kinase MRCK gamma (Homo sapiens) (Q6DT37 whole entry): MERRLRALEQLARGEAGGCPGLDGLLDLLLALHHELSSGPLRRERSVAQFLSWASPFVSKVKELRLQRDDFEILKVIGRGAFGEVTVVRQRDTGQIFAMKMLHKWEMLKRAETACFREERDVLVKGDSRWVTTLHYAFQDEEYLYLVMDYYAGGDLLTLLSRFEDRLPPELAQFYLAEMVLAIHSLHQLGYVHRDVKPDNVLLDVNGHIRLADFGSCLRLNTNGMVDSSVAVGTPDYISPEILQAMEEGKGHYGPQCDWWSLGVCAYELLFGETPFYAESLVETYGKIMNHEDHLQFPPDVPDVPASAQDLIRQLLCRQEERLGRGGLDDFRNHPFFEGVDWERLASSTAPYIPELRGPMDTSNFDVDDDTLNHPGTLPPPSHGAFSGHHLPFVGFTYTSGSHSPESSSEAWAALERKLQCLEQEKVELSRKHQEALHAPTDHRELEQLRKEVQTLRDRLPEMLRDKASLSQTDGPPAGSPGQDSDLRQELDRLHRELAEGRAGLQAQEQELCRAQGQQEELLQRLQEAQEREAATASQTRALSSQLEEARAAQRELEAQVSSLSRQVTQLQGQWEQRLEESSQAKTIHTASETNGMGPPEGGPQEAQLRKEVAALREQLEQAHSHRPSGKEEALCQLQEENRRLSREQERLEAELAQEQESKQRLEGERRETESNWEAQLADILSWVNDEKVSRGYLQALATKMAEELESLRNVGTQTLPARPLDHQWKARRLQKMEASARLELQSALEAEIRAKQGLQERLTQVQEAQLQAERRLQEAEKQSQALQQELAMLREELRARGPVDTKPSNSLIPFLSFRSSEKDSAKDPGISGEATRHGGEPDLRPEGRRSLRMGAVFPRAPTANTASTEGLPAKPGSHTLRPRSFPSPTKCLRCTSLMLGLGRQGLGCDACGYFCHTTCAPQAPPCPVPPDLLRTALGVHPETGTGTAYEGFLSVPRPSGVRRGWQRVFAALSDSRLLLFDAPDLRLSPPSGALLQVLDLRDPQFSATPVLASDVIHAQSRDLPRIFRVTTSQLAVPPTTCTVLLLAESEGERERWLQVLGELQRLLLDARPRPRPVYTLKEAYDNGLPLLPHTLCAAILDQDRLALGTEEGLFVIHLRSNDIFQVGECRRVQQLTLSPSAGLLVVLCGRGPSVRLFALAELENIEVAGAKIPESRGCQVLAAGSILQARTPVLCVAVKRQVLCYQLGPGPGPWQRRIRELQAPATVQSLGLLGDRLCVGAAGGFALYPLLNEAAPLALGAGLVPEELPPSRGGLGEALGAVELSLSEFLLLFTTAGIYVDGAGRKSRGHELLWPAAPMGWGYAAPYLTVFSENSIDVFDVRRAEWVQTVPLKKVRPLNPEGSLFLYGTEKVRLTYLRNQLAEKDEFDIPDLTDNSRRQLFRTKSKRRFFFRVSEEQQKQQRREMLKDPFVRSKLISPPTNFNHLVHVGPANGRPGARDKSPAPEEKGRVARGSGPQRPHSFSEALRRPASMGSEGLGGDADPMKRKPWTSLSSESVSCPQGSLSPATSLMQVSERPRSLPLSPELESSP

[6] = target: Dual specificity protein kinase CLK1 (Homo sapiens) (UniProt P49759); assay: Inhibition of human CLK1 assessed as enzyme activity at 1 uM using myelin basic protein as substrate preincubated for 20 mins followed by [gamma-33P]-ATP addition and measured after 120 mins by radiometric Hot-SpotSM Kinase assay relative to control
[7] = target: Bone morphogenetic protein receptor type-1A (Homo sapiens) (UniProt P36894); assay: Inhibition of human ALK3 assessed as enzyme activity at 1 uM using casein as substrate preincubated for 20 mins followed by [gamma-33P]-ATP addition and measured after 120 mins by radiometric Hot-SpotSM Kinase assay relative to control
Chain of Bone morphogenetic protein receptor type-1A (Homo sapiens) (P36894 whole entry): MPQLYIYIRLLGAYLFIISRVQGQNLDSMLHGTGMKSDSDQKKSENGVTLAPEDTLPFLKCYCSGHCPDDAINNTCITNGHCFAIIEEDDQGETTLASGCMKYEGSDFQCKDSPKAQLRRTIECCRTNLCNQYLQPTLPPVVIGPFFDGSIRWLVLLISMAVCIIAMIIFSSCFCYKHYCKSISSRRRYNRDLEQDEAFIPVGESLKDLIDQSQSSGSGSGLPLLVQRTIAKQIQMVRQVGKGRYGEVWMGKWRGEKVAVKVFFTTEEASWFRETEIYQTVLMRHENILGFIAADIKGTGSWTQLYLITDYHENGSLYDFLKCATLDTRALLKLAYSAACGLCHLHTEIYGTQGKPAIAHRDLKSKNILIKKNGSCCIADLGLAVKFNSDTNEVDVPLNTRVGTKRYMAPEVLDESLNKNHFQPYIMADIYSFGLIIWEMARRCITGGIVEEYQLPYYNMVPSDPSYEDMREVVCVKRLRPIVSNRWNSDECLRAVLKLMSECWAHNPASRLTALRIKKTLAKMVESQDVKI

[8] = target: Serine/threonine-protein kinase 24 (Homo sapiens) (UniProt Q9Y6E0); assay: Inhibition of human MST3 assessed as enzyme activity at 1 uM using myelin basic protein as substrate preincubated for 20 mins followed by [gamma-33P]-ATP addition and measured after 120 mins by radiometric Hot-SpotSM Kinase assay relative to control
Chain of Serine/threonine-protein kinase 24 (Homo sapiens) (Q9Y6E0 whole entry, looked up): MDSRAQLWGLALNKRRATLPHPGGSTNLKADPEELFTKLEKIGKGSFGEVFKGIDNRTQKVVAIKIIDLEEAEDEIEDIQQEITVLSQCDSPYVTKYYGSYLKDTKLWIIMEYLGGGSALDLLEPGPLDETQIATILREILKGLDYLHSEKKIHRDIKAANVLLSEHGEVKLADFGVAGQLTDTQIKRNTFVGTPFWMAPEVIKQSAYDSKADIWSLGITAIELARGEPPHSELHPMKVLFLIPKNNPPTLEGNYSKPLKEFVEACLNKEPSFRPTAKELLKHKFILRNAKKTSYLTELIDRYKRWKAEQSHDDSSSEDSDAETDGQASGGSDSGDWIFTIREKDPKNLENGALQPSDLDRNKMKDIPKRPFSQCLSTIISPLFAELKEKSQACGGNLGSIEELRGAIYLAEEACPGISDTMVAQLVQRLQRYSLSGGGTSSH

[9] = target: ALK tyrosine kinase receptor (Homo sapiens) (UniProt Q9UM73); assay: Inhibition of human ALK assessed as enzyme activity at 1 uM using poly[Glu:Tyr] (4:1) as substrate preincubated for 20 mins followed by [gamma-33P]-ATP addition and measured after 120 mins by radiometric Hot-SpotSM Kinase assay relative to control
Chain of ALK tyrosine kinase receptor (Homo sapiens) (Q9UM73 19-1620 limits assumed): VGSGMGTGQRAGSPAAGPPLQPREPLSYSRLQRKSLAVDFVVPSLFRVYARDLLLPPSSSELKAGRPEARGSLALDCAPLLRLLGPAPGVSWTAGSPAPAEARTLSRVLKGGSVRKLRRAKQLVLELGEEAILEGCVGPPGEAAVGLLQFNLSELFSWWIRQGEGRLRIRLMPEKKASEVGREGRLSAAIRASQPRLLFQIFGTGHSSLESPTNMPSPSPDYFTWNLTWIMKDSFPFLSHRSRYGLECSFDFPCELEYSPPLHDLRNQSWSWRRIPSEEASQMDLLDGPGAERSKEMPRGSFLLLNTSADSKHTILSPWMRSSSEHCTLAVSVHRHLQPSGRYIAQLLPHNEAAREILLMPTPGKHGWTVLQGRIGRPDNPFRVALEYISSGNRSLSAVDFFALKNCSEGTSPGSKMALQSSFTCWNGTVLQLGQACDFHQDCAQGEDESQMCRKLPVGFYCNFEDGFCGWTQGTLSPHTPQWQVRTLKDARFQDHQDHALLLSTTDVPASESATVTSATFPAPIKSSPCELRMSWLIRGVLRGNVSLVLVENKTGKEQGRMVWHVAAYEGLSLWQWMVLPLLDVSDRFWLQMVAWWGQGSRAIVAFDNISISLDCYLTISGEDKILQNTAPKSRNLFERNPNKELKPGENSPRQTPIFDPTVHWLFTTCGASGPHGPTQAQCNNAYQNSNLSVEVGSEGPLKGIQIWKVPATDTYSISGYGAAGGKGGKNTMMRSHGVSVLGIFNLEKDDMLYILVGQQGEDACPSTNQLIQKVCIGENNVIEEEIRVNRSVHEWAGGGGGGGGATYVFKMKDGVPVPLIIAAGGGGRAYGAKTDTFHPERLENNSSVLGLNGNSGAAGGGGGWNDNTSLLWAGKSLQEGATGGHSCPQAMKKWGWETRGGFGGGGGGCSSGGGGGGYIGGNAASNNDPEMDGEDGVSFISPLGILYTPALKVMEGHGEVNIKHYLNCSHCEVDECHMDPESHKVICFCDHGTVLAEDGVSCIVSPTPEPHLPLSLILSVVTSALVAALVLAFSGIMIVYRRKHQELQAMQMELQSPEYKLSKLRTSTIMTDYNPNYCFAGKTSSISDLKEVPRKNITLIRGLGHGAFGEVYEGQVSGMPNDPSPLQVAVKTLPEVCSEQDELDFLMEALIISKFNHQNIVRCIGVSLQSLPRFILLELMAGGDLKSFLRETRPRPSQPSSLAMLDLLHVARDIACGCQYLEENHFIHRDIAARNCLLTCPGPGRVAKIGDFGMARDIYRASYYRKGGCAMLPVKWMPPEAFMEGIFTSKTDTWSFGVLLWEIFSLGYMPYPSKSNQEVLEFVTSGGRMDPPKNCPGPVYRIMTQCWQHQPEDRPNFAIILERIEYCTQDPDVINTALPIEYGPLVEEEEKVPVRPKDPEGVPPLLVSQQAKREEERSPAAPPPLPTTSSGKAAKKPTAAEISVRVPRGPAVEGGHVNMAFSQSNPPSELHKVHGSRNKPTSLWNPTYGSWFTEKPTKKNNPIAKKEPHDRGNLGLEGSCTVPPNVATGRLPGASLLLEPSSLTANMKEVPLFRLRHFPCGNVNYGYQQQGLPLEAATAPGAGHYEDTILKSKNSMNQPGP

[10] = target: Cyclin-dependent kinase 4/cyclin D1 (Homo sapiens) (UniProt P11802+P24385); assay: Inhibition of human CDK4/cyclin D1 assessed as enzyme activity at 1 uM using RB Protein as substrate preincubated for 20 mins followed by [gamma-33P]-ATP addition and measured after 120 mins by radiometric Hot-SpotSM Kinase assay relative to control; assay type: protein-complex assay
[11] = target: Tyrosine-protein kinase CSK (Homo sapiens) (UniProt P41240); assay: Inhibition of human CSK assessed as enzyme activity at 1 uM using poly[Glu:Tyr] (4:1) as substrate preincubated for 20 mins followed by [gamma-33P]-ATP addition and measured after 120 mins by radiometric Hot-SpotSM Kinase assay relative to control

Chain of Casein kinase I isoform gamma-2 (Homo sapiens) (P78368 whole entry, looked up, canonical isoform): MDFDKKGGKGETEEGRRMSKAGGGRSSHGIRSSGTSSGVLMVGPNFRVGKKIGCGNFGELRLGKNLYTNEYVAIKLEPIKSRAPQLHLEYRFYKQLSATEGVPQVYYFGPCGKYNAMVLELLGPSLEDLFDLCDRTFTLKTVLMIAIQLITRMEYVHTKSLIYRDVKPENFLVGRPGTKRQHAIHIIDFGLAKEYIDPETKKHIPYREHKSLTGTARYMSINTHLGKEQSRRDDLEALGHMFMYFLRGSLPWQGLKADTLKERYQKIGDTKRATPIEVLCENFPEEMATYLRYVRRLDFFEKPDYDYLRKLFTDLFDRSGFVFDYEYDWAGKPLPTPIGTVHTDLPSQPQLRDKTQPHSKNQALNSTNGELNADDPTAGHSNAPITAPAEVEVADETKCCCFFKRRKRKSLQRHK

SMILES	Activity [1] [%]	Activity [2] [%]	Activity [3] [%]	Activity [4] [%]	Activity [5] [%]	Activity [6] [%]	Activity [7] [%]	Activity [8] [%]	Activity [9] [%]	Activity [10] [%]	Activity [11] [%]
CC[C@H](Nc1ncnc2[nH]cnc12)c1nc2cccc(F)c2c(=O)n1-c1ccccc1	99.7	98.3	99.3	96.5	97.4	97.3	105	88.2	100	108	99.1
CC(C)Oc1ccc(-c2nn([C@@H](C)c3oc4ccc(F)cc4c(=O)c3-c3cccc(F)c3)c3ncnc(N)c23)cc1F [UMBRALISIB]	104	97.4	103	98.5	104	103	89.5	81.6	96.5	104	94.1
C[C@H](Nc1ncnc2nc[nH]c12)c1cc2cccc(Cl)c2c(=O)n1-c1ccccc1	98.5	89.7	107	97.7	102	106	101	87.3	96.7	110	97.9

— ChEMBL document CHEMBL5715954, “Silencing c-Myc translation as a therapeutic strategy through targeting PI3Kδ and CK1ε in hematological malignancies” (Blood, 2017)
